Results: patent US20060069132A1, “Azolecarboxamide herbicides” (priority 2004, published 2006)

Key:
barnyardgrass [1] = assay: Test B pre-/postemergence herbicide test; format: in vivo, Echinochloa crus-galli; conditions: for Plant response rating, Barnyardgrass: preemergence; for Barnyardgrass plant response rating: postemergence, visual rating, scale 0 (no effect) to 100 (complete control)
How it was run: (§1)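 Greenhouse pot assay with simultaneous preemergence (treated seed) and postemergence (2–18 cm seedlings) applications of surfactant-containing, non-phytotoxic solvent formulations. Response scored visually 13–15 days later on a 0–100 scale, 100 meaning complete control.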

Surinam grass = assay: Test B pre-/postemergence herbicide test; format: in vivo, Urochloa decumbens; conditions: for Plant response rating, Surinam Grass: preemergence; for Surinam Grass plant response rating: postemergence, visual rating, scale 0 (no effect) to 100 (complete control)
How it was run: (§2)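 Pre: seeds sown, then sprayed. Post: 1–4-leaf plants (2–18 cm) sprayed at the same time. Paddy: flooded, treated at 2-leaf stage. Formulation: non-phytotoxic solvent with surfactant. Greenhouse 13–15 days; visual 0–100 score relative to controls.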

cocklebur = assay: Test B pre-/postemergence herbicide test; format: in vivo, Xanthium strumarium; conditions: for Plant response rating, Cocklebur: preemergence; for Cocklebur plant response rating: postemergence, visual rating, scale 0 (no effect) to 100 (complete control)
How it was run: as §1

corn = assay: Test B pre-/postemergence herbicide test; format: in vivo, Zea mays; conditions: for Plant response rating, Corn: preemergence; for Corn plant response rating: postemergence, visual rating, scale 0 (no effect) to 100 (complete control)
How it was run: as §2

large crabgrass = assay: Test B pre-/postemergence herbicide test; format: in vivo, Digitaria sanguinalis; conditions: for Plant response rating, Crabgrass, Large: preemergence; for Crabgrass, Large plant response rating: postemergence, visual rating, scale 0 (no effect) to 100 (complete control)
How it was run: as §2

giant foxtail = assay: Test B pre-/postemergence herbicide test; format: in vivo, Setaria faberi; conditions: for Plant response rating, Foxtail, Giant: preemergence; for Foxtail, Giant plant response rating: postemergence, visual rating, scale 0 (no effect) to 100 (complete control)
How it was run: as §2

lambsquarters = assay: Test B pre-/postemergence herbicide test; format: in vivo, Chenopodium album; conditions: for Plant response rating, Lambsquarters: preemergence; for Lambsquarters plant response rating: postemergence, visual rating, scale 0 (no effect) to 100 (complete control)
How it was run: as §2

morningglory = assay: Test B pre-/postemergence herbicide test; format: in vivo, Ipomoea coccinea; conditions: for Plant response rating, Morningglory: preemergence; for Morningglory plant response rating: postemergence, visual rating, scale 0 (no effect) to 100 (complete control)
How it was run: as §1

pigweed = assay: Test B pre-/postemergence herbicide test; format: in vivo, Amaranthus retroflexus; conditions: for Plant response rating, Pigweed: preemergence; for Pigweed plant response rating: postemergence, visual rating, scale 0 (no effect) to 100 (complete control)
How it was run: as §2

rice [2] = assay: Test B pre-/postemergence herbicide test; format: in vivo, Oryza sativa; conditions: 500 g ai/ha; visual rating 0-100, 0 no effect, 100 complete control; preemergence
How it was run: as §2

velvetleaf = assay: Test B pre-/postemergence herbicide test; format: in vivo, Abutilon theophrasti; conditions: for Plant response rating, Velvetleaf: preemergence; for Velvetleaf plant response rating: postemergence, visual rating, scale 0 (no effect) to 100 (complete control)
How it was run: as §2

blackgrass = assay: Test B postemergence herbicide test; format: in vivo, Alopecurus myosuroides; conditions: postemergence, 500 g ai/ha; visual rating, scale 0 (no effect) to 100 (complete control)
How it was run: (§3)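 Greenhouse test; postemergence application to plants at 1–4 leaves (2–18 cm); paddy species at 2 leaves; evaluated visually vs controls at 13–15 days; scale 0–100 (100 = complete control).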

wheat = assay: Test B postemergence herbicide test; format: in vivo, Triticum aestivum; set-up: key to Wheat plant response rating: 0 = no effect, 100 = complete control; conditions: postemergence, 500 g ai/ha; visual rating, scale 0 (no effect) to 100 (complete control)
How it was run: (§4)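 Postemergence plants were sprayed with formulated test chemicals at 2 to 18 cm height (1- to 4-leaf stage); paddy species were grown to the 2-leaf stage. After 13 to 15 days in a greenhouse, injury was rated visually against untreated controls on a 0–100 scale (0 = no effect, 100 = complete control).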

wild oat = assay: Test B postemergence herbicide test; format: in vivo, Avena fatua; conditions: postemergence, visual rating, scale 0 (no effect) to 100 (complete control)
How it was run: as §4

rice [3] = assay: Test B flooded paddy test; format: in vivo, Oryza sativa; conditions: 1000 g ai/ha, visual rating, scale 0 to 100 (0 no effect, 100 complete control), 13 to 15 days
How it was run: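 Plants grow to 1- to 4-leaf stage (2–18 cm) for postemergence spraying, or to 2-leaf stage for the paddy test. Formulated compound is applied. Greenhouse holding lasts 13–15 days. Response is scored visually relative to controls, 0 no effect to 100 complete control; a dash means no result.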

[4] = test system: small flower umbrella sedge; assay: Test B flooded paddy test; format: in vivo, Cyperus difformis; conditions: 1000 g ai/ha, visual rating, scale 0 to 100 (0 no effect, 100 complete control), 13 to 15 days
How it was run: as §3

ducksalad [5] = assay: Test B flooded paddy test; format: in vivo, Heteranthera limosa; conditions: 1000 g ai/ha, visual rating, scale 0 to 100 (0 no effect, 100 complete control), 13 to 15 days
How it was run: as §3

barnyardgrass [6] = assay: Test B flooded paddy test; format: in vivo, Echinochloa crus-galli; conditions: 1000 g ai/ha, visual rating, scale 0 to 100 (0 no effect, 100 complete control), 13 to 15 days
How it was run: as §3

rice [7] = assay: Test C flooded paddy test; format: in vivo, Oryza sativa
How it was run: (§5)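 Postemergence sprays applied to plants 2 to 18 cm tall (1- to 4-leaf stage); paddy species grown to 2-leaf stage under flooding. After 12 to 14 days in greenhouse, visual rating versus untreated controls on 0–100 scale (0 no effect, 100 complete control).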

[8] = test system: smallflower umbrella sedge; assay: Test C flooded paddy test; format: in vivo, Cyperus difformis
ducksalad [9] = assay: Test C flooded paddy test; format: in vivo, Heteranthera limosa
barnyardgrass [10] = assay: Test C flooded paddy test; format: in vivo, Echinochloa crus-galli
How it was run: as §5

[11] = 500 g ai/ha, visual rating 0-100, 0 no effect, 100 complete control
[12] = 125 g ai/ha, 0 to 100 scale, 0 is no effect, 100 is complete control
[13] = 62 g ai/ha, scale 0 to 100 (0 no effect, 100 complete control)
[14] = 125 g ai/ha, scale 0 to 100 (0 no effect, 100 complete control)
[15] = 250 g ai/ha, scale of 0 to 100, 0 is no effect, 100 is complete control
[16] = 500 g ai/ha, visual rating after 12 to 14 days, scale 0 to 100 (0 no effect, 100 complete control)

C#CCN(C)C(=O)c1ccnc(NC(=O)c2cc(C(C)(C)C)nn2CC)c1 [Compound 160]
60: Plant response rating, Velvetleaf (velvetleaf; [12]) | Rice plant response rating (rice [7]; [13]) | Barnyardgrass plant response rating (barnyardgrass [10]; 125 g ai/ha, scale of 0 to 100, 0 is no effect, 100 is complete control)
100: Plant response rating, Barnyardgrass (barnyardgrass [1]; [11]) | Plant response rating, Lambsquarters (lambsquarters; [11]) | Plant response rating, Lambsquarters (lambsquarters; [12]) | Plant response rating, Pigweed (pigweed; [11]) | Plant response rating, Pigweed (pigweed; [12])
85: Plant response rating, Sedge, Umbrella [8, 16] | Ducksalad plant response rating (ducksalad [9]; [14]) | Plant response rating, Barnyardgrass (barnyardgrass [10]; [16])
0: Barnyardgrass plant response rating (barnyardgrass [1]; 125 g ai/ha) | Corn plant response rating (corn; 125 g ai/ha) | Corn plant response rating (corn; 500 g ai/ha) | Plant response rating, Corn (corn; [12]) | Crabgrass, Large plant response rating (large crabgrass; 125 g ai/ha) | Crabgrass, Large plant response rating (large crabgrass; 500 g ai/ha) | Morningglory plant response rating (morningglory; 125 g ai/ha)
80: Plant response rating, Crabgrass, Large (large crabgrass; [11]) | Lambsquarters plant response rating (lambsquarters; 500 g ai/ha) | Pigweed plant response rating (pigweed; 500 g ai/ha) | Plant response rating, Rice (rice [2]) | Plant response rating, Velvetleaf (velvetleaf; [11]) | Sedge, Umbrella plant response rating [4] | Sedge, Umbrella plant response rating [8, 15]
95: Plant response rating, Rice (rice [7]; [16])
70: Plant response rating, Barnyardgrass (barnyardgrass [1]; [12]) | Plant response rating, Surinam Grass (Surinam grass; [11]) | Plant response rating, Cocklebur (cocklebur; [11]) | Plant response rating, Foxtail, Giant (giant foxtail; [11]) | Lambsquarters plant response rating (lambsquarters; 125 g ai/ha) | Morningglory plant response rating (morningglory; 500 g ai/ha) | Velvetleaf plant response rating (velvetleaf; 125 g ai/ha) | Velvetleaf plant response rating (velvetleaf; 500 g ai/ha) | Barnyardgrass plant response rating (barnyardgrass [6]) | Rice plant response rating (rice [7]; [14]) | Sedge, Umbrella plant response rating [8, 14] | Barnyardgrass plant response rating (barnyardgrass [10]; [15])
20: Plant response rating, Surinam Grass (Surinam grass; [12]) | Cocklebur plant response rating (cocklebur; 125 g ai/ha) | Plant response rating, Corn (corn; [11]) | Plant response rating, Crabgrass, Large (large crabgrass; [12]) | Plant response rating, Morningglory (morningglory; [12]) | Barnyardgrass plant response rating (barnyardgrass [10]; [13])
75: Rice plant response rating (rice [7]; [15]) | Ducksalad plant response rating (ducksalad [9]; [13])
40: Plant response rating, Cocklebur (cocklebur; [12]) | Pigweed plant response rating (pigweed; 125 g ai/ha)
30: Foxtail, Giant plant response rating (giant foxtail; 125 g ai/ha) | Foxtail, Giant plant response rating (giant foxtail; 500 g ai/ha) | Oat, Wild plant response rating (wild oat; 500 g ai/ha)
50: Blackgrass plant response rating (blackgrass) | Sedge, Umbrella plant response rating [8, 13]
90: Cocklebur plant response rating (cocklebur; 500 g ai/ha) | Plant response rating, Morningglory (morningglory; [11]) | Rice plant response rating (rice [3]) | Ducksalad plant response rating (ducksalad [5]) | Ducksalad plant response rating (ducksalad [9]; [15]) | Plant response rating, Ducksalad (ducksalad [9]; [16])
10: Barnyardgrass plant response rating (barnyardgrass [1]; 500 g ai/ha) | Surinam Grass plant response rating (Surinam grass; 125 g ai/ha) | Surinam Grass plant response rating (Surinam grass; 500 g ai/ha) | Plant response rating, Foxtail, Giant (giant foxtail; [12]) | Wheat plant response rating (wheat) | Oat, Wild plant response rating (wild oat; 125 g ai/ha)
